Assay results published in patent US20230113516A1, “5-AMINO-2,3-DIHYDRO-1,4-PHTHAL[…] TREATMENT OF ACUTE LUNG INJURY” (Metriopharm AG, priority 2020, published 2023).
Where two headings read alike, the source gives them in different places.

Columns and labels:
Vero B4 cells = conditions: antivirally effective concentrations; observation period of 3 days; tested 0.25-4 mM
Excerpt: Herein viable cells with an intact mitochondrial succinate-tetrazolium dehydrogenase system effect an enzymatic conversion of the feebly red tetrazolium salt WST-1 (4-[3-(4-iodophenyl)-2-(4-nitrophenyl)-2H-5-tetrazolio]-1,3 benzene disulfonate) into dark red formazan. This color change can be measured photometrically in a spectrophotometer. Thus, the WST assay is a very sensitive method for measuring the toxicity of substances on the cell metabolism. The value for untreated cells was set to 100%.
The value for untreated cells was set to 100%. 1 μM staurosporine (an indolocarbazole compound from Streptomyces staurosporeus, an apoptosis inducer) was used as positive control.

[1] = test system: murine peritoneal macrophages
Excerpt: Female C57Bl/6 mice (6-8 weeks old) were purchased from Envigo (San Petro al Natisone, Udine, Italy) and housed under standard laboratory conditions (specific-pathogen free). Food and water were applied ad libitum. Animal handling and the study protocol were in accordance with international guidelines.
Four days after i.p. injection of 3% thioglycolate medium (w/v in distilled water; St Louis, Mo. USA), murine peritoneal macrophages (PM) were isolated according to the protocol of Zhang et al. (Curr. Protoc. Immunol. 2008, Chapter 14, Unit 14.1).
Briefly, cells were collected by injecting 10 ml of complete medium (DMEM/F12 Medium containing 10% fetal calf serum) into the peritoneal cavity using a 30 cc syringe attached to a 19-G needle, followed by slowly withdrawing the lavage fluid. Cells were washed twice in PBS (phosphate buffered saline) and counted.
One hour prior to LPS (lipopolysaccharide) stimulation (0.1 μg/ml; Escherichia coli […], St Louis, Mo. USA), cells (0.5×10^6 cells/well in 24-well plates with 1 ml total volume of medium) were pre-treated with scalar concentrations of 5-amino-2,3-dihydro-1,4-phthalazinedione sodium salt (ranging from 1 mM to 0.025 mM). Two independent experiments (each using cells pooled from three mice) were performed and secreted cytokine levels were determined 24, 48 and 72 h after LPS stimulation using ELISA technique.

[2] = test system: 3-nitrotyrosine formation in the lung parenchyma; conditions: for 3-nitrotyrosine stained surface area, mean ± SEM: cigarette smoke alone 3.07, room air 0.24
Procedure: C57BL/6J mice (n=25, 5 per group; male/female, 3-6 months, 20-30 g; Charles River GmbH, Sulzfeld, Germany) were anesthetized with a ketamine (100 mg/kg body weight) and xylazine (20 mg/kg body weight) intraperitoneal injection (Ceva Tiergesundheit GmbH, Dusseldorf, Germany) containing heparin (50 I.E. heparin/g body weight; Ratiopharm GmbH, Ulm, Germany). The lungs and the heart were removed from the chest cavity and placed on the ILU system (see FIGS. 1A and 1B). Lungs were ventilated in an isolated chamber using normoxic gas (21% O2, 5% CO2, 74% N2; 150 breaths per minute at the PEEP (positive end-expiratory pressure) of 3 cm H2O) and perfused with a modified Krebs-Henseleit buffer (120.0 mM NaCl, 4.3 mM KCl, 1.1 mM KH2PO4, 2.4 mM CaCl2, 1.3 mM MgCl2, 13.14 mM glucose, 0.25 mM hydroxyethyl starch 200000/0.5, 25.0 mM NaHCO3 adjusted to a constant pH range of […] L-arginine; Serag-Wissner GmbH & Co. KG, Naila, Germany) at a temperature of 37° C. Lung weight, right and left ventricle pressure, as well as ventilatory pressure were monitored and recorded during the whole experimental procedure. After 5-10 minutes, when the lung was properly flushed and all the parameters were stable, 5-amino-2,3-dihydro-1,4-phthalazinedione sodium salt was applied by adding 150 μl of a stock solution to 15 ml of the circulating perfusion buffer. The substance was applied 10 minutes prior to the first cigarette smoke application. Cigarette smoke was applied via trachea while lung is perfused with the buffer containing 5-amino-2,3-dihydro-1,4-phthalazinedione sodium salt. Cigarette smoke was prepared freshly before each application, by burning one cigarette (research cigarettes 3R4F, University of Kentucky, USA) in one minute using normoxic gas at the flow of 1 l/min and collected in a 1 l glass bottle containing 5 g silica gel for removing the moist from the cigarette smoke. 50 ml of the cigarette smoke were taken via a syringe and applied to the lung via trachea (FIG. 4A) in deep breaths (periodic inflation for 3-4 s) over a period of 5 min. The application was done manually while carefully monitoring the inspiratory pressure to avoid damage of the lung. The cigarette smoke application was repeated three times with a 1 hour break in-between.
5-amino-2,3-dihydro-1,4-phthalazinedione sodium salt Form I was dissolved in water for injection (vehicle) at the required concentrations described above. Stock solutions were prepared in water for injection. Further 1:100 dilutions were made with modified Krebs-Henseleit buffer (see above). Stock solutions were stored at −70° C. in appropriate aliquots. The required amount of stock solution was thawed, and the corresponding working solution was prepared for immediate use.
One hour after the third cigarette smoke application lungs were removed from the system and fixed by inflating with formalin solution (via trachea) at the pressure of 12-15 cm H2O for two hours at room temperature. Afterwards the fixed lungs were kept in PBS (phosphate buffer saline, see below) at +4° C. until further dehydration and paraffin embedding. Paraffin blocks were cut 3 μm thick, dried overnight at 37° C. and stained for 3-nitrotyrosine (3-NT).
The immunohistochemical staining of 3-nitrotyrosine was carried out according to the following protocol:
Stained histological samples were blindly analysed by light microscope. 3-nitrotyrosine levels in the lung parenchyma were quantified as a percentage of stained surface area. Quantification was performed under 200× magnification in 5-10 randomly selected fields with exclusion of large bronchi and vessels. One-Way ANOVA statistical test with Bonferroni correction was performed for comparison between groups. Differences with p<0.05 were considered statistically significant.

PCI model of sepsis = conditions: for survival rate after 10 days: therapeutic mode, n=6
Procedure: In the PCI (peritoneal contamination and infection) model of sepsis a human fecal suspension was injected intraperitoneally to mice (3 μl/g body weight). To all groups the antibiotic meropenem (25 mg/kg body weight) was administered 6 hours after PCI induction. At this time point all mice received also a volume loading with a 5% glucose solution. This treatment is repeated on the two consecutive days after PCI induction, at intervals of 24 hours. • Group I: control (not infected) • Group II: PCI (infected, without treatment) • Group III: PCI+2 mg/kg body weight 5-amino-2,3-dihydro-1,4-phthalazinedione sodium salt Form I • Group IV: PCI+5 mg/kg body weight 5-amino-2,3-dihydro-1,4-phthalazinedione sodium salt Form I
Starting at 8 hours after PCI induction the mice of the treatment groups were treated for two consecutive days every 8 hours with an intraperitoneal injection of 2 mg/kg body weight, respectively 5 mg/kg body weight 5-amino-2,3-dihydro-1,4-phthalazinedione sodium salt Form I. Thereupon the mice were treated for further eight days with an intraperitoneal injection of 2 mg/kg body weight, respectively 5 mg/kg body weight 5-amino-2,3-dihydro-1,4-phthalazinedione sodium salt Form I once daily. (n=6)
Herein the mice were treated with 5 mg/kg body weight 5-amino-2,3-dihydro-1,4-phthalazinedione sodium salt Form I only, but only twice, 3 hours before PCI induction and 6 hours after (n=8).
The Clinical Severity Score (CSS) was assessed daily for the mice of the prophylactic treatment group. The CSS was assessed according to Gonnert et al. (2011) J Surg Res 170: e123-134.

[3] = 1 mM, pre-treatment 1 h prior to LPS (0.1 μg/ml), C57Bl/6 PMs

Nc1cccc2c(=O)[nH][nH]c(=O)c12.[Na] [5-amino-2,3-dihydro-1,4-phthalazinedione sodium salt]
toxic effect (cell viability, WST assay) (Vero B4 cells): does not display any significant toxic effect | reduction of IL-1-beta level [1, 3]: ~50% | reduction of IL-6 level [1, 3]: ~80% | reduction of IL-12 level [1, 3]: ~60% | reduction of TNF-alpha level [1, 3]: about 40% | cytokine reduction in PMs of a second mouse strain ([1]; Balb/c, six concentrations from 1 mM to 0.25 mM, data not shown): clear dose-dependency | cytokine secretion of unstimulated murine PMs ([1]; no LPS, data not shown): did not affect | SARS-CoV-2 nucleocapsid protein (Western Blot) (SARS-CoV-2): clear reduction | generation of SARS-CoV-2 proteins (densitometric evaluation) (SARS-CoV-2): inhibited dose-dependently | cigarette smoke induced 3-nitrotyrosine formation (in words) ([2]; 0.5 mM in perfusion buffer): moderate effect | cigarette smoke induced 3-nitrotyrosine formation (in words) ([2]; 1 mM in perfusion buffer): almost completely abolished | cigarette smoke induced 3-nitrotyrosine formation (in words) ([2]; 2 mM in perfusion buffer): almost completely abolished | 3-nitrotyrosine stained surface area, mean ± SEM ([2]; cigarette smoke + 0.5 mM in perfusion buffer (group C)): 2.24 ± 0.28 % area | 3-nitrotyrosine stained surface area, mean ± SEM ([2]; cigarette smoke + 1 mM in perfusion buffer (group D)): 0.72 ± 0.26 % area | 3-nitrotyrosine stained surface area, mean ± SEM ([2]; cigarette smoke + 2 mM in perfusion buffer (group E)): 0.37 ± 0.13 % area | survival rate (PCI model of sepsis; prophylactic mode, 5 mg/kg body weight, 3 hours before and 6 hours after PCI induction, Group IV, n=8): 100% | recovery (Clinical Severity Score) versus untreated group (PCI model of sepsis; prophylactic mode, 5 mg/kg body weight, in particular after Day 4): recovered clearly more quickly | Clinical Severity Score (CSS) versus untreated group (PCI model of sepsis; prophylactic mode, 5 mg/kg body weight, surviving animals): less strongly diseased | survival rate after 10 days (PCI model of sepsis; 2 mg/kg body weight i.p., Group III): 50% | survival rate after 10 days (PCI model of sepsis; 5 mg/kg body weight i.p., Group IV): 83%
